Laboratory results from PubChem BioAssay (NCI).
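Grown in 96-well plates, cells were treated for 48 hours with each compound at five concentrations. Insufficient inhibition: endpoint recorded as highest concentration tested. At the TGI there is no net growth.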

How the values were obtained:
Assay in all cases: NCI anticancer screen, dose series, 48 h
HCT-15 colon = tested on: HCT-15 colon
MDA-MB-231 breast = tested on: MDA-MB-231 breast
HCT-116 colon = tested on: HCT-116 colon
DU-145 prostate = tested on: DU-145 prostate
COLO 205 colon = tested on: COLO 205 colon
HT29 colon = tested on: HT29 colon
SK-MEL-5 melanoma = tested on: SK-MEL-5 melanoma
UACC-257 melanoma = tested on: UACC-257 melanoma
HS 578T breast = tested on: HS 578T breast
SF-268 CNS = tested on: SF-268 CNS
SNB-75 CNS = tested on: SNB-75 CNS
NCI-H226 lung = tested on: NCI-H226 lung

SMILES | TGI (HCT-15 colon) | TGI (MDA-MB-231 breast) | TGI (HCT-116 colon) | TGI (DU-145 prostate) | TGI (COLO 205 colon) | TGI (HT29 colon) | TGI (SK-MEL-5 melanoma) | TGI (UACC-257 melanoma) | TGI (HS 578T breast) | TGI (SF-268 CNS) | TGI (SNB-75 CNS) | TGI (NCI-H226 lung)
COc1ccc2cc1Oc1ccc(cc1)C(Sc1ccccc1)CCOC(=O)CC2 (stereo unspecified) | > 100 µM | > 100 µM | > 100 µM | > 100 µM | > 100 µM | > 100 µM | > 100 µM | > 100 µM | > 100 µM | > 100 µM | > 100 µM | > 100 µM
C/C(=N/NC(=S)Nc1ccccc1Cl)c1cccc(/C(C)=N\NC(=S)Nc2ccccc2Cl)n1 | > 100 µM | 75.2 µM | 49.4 µM | > 100 µM | > 100 µM | > 100 µM | > 100 µM | > 100 µM | > 100 µM | > 100 µM | > 100 µM | > 100 µM
CC1(C)[C@@H](Cn2cnc3c(N)ncnc32)CC[C@@]1(C)CO | > 100 µM | > 100 µM | > 100 µM | > 100 µM | > 100 µM | > 100 µM | > 100 µM | > 100 µM | > 100 µM | > 100 µM | > 100 µM | > 100 µM
